Experimental data: ChEMBL document CHEMBL6096638, “Design, synthesis and biological evaluation of novel TMPRSS2-PROTACs with florosubstituted 4-guanidino-N-phenylbenzamide derivative ligands” (Bioorg Med Chem, 2024)
The source made the active and inactive calls. No cut-off for these calls is given here.

Assays:
A549 = test: Antiproliferative activity against human A549 cells assessed as inhibition of cell growth incubated for 48 hrs by CCK-8 assay; format: functional, cell-based; conditions: A549, 48 h
Calu-3 [1] = test: Antiproliferative activity against human Calu-3 cells assessed as inhibition of cell growth at 20 uM incubated for 48 hrs by CCK-8 assay relative to control; format: functional
DU-145 [2] = test: Antiproliferative activity against human DU-145 cells assessed as inhibition of cell growth incubated for 48 hrs by CCK-8 assay; format: functional, cell-based; conditions: DU-145, 48 h
Calu-3 [3] = test: Antiproliferative activity against human Calu-3 cells assessed as inhibition of cell growth incubated for 48 hrs by CCK-8 assay; format: functional, cell-based; conditions: Calu-3, 48 h
DU-145 [4] = test: Antiproliferative activity against human DU-145 cells assessed as inhibition of cell growth at 20 uM incubated for 48 hrs by CCK-8 assay relative to control; format: functional
HT-29 [5] = test: Antiproliferative activity against human HT-29 cells assessed as inhibition of cell growth incubated for 48 hrs by CCK-8 assay; format: functional, cell-based; conditions: HT-29, 48 h
HT-29 [6] = test: Antiproliferative activity against human HT-29 cells assessed as inhibition of cell growth at 20 uM incubated for 48 hrs by CCK-8 assay relative to control; format: functional
MRC5 = test: Antiproliferative activity against human MRC5 cells assessed as inhibition of cell growth incubated for 48 hrs by CCK-8 assay; format: functional, cell-based; conditions: MRC5, 48 h

IC50 (A549) | IC50 (DU-145 [2]) | IC50 (Calu-3 [3]) | IC50 (HT-29 [5]) | Structure (SMILES) | inhibition at 20 µM (Calu-3 [1]) | inhibition at 20 µM (DU-145 [4]) | inhibition at 20 µM (HT-29 [6]) | IC50 (MRC5) | inhibition (Calu-3 [1]) | inhibition (DU-145 [4])
35.1 µM | 11.2 µM | 21.4 µM | 3.83 µM | Cc1ncsc1-c1ccc(CNC(=O)[C@@H]2C[C@@H](O)CN2C(=O)[C@@H](NC(=O)CN2CCC(CN3CCN(c4ccc(NC(=O)c5ccc(NC(=N)N)cc5F)cc4)CC3)CC2)C(C)(C)C)cc1 | 47.5% | 56.9% | 91.9% | > 40 µM |  | 
 |  |  |  | Cc1ncsc1-c1ccc(CNC(=O)[C@@H]2C[C@@H](O)CN2C(=O)[C@@H](NC(=O)COCCOCCOCCN2CCN(c3cccc(NC(=O)c4ccc(NC(=N)N)cc4)c3)CC2)C(C)(C)C)cc1 |  | 15.3% | 23.8% |  | inactive | 
 |  |  |  | COc1cc(C(=O)Nc2ccc(CC(=O)NCCCCCCC(=O)N[C@H](C(=O)N3C[C@H](O)C[C@H]3C(=O)NCc3ccc(-c4scnc4C)cc3)C(C)(C)C)cc2)ccc1NC(=N)N |  | 8.05% | 31.6% |  | inactive | 
 |  |  |  | COc1cc(C(=O)Nc2cccc(COCCOCCOCCOC(=O)N[C@H](C(=O)N3C[C@H](O)C[C@H]3C(=O)NCc3ccc(-c4scnc4C)cc3)C(C)(C)C)c2)ccc1NC(=N)N |  | 8.88% | 30.1% |  | inactive | 
 |  |  |  | Cc1ncsc1-c1ccc(CNC(=O)[C@@H]2C[C@@H](O)CN2C(=O)[C@@H](NC(=O)CN2CCN(c3ccc(NC(=O)c4ccc(NC(=N)N)cc4F)cc3)CC2)C(C)(C)C)cc1 | 10.3% | 14.4% | 34.4% |  |  | 
 |  |  |  | COc1cc(C(=O)Nc2ccc(CC(=O)NCCCCCC(=O)Nc3cccc4c3CN(C3CCC(=O)NC3=O)C4=O)cc2)ccc1NC(=N)N (configuration not stated) |  | 9.05% | 18.9% |  | inactive | 
 |  |  |  | COc1cc(C(=O)Nc2ccc(CC(=O)NCCCCCCNc3cccc4c3C(=O)N(C3CCC(=O)NC3=O)C4=O)cc2)ccc1NC(=N)N (configuration not stated) |  | 10.5% | 21.1% |  | inactive | 
 |  |  |  | N=C(N)Nc1ccc(C(=O)Nc2ccc(CC(=O)N3CCC(CN4CCN(CCCNc5ccc6c(c5)C(=O)N(C5CCC(=O)NC5=O)C6=O)CC4)CC3)cc2)cc1 (configuration not stated) | 5.77% | 16.8% | 37.4% |  |  | 
 |  |  |  | COc1cc(C(=O)Nc2ccc(N3CCN(CC4CCN(CC(=O)N[C@H](C(=O)N5C[C@H](O)C[C@H]5C(=O)NCc5ccc(-c6scnc6C)cc5)C(C)(C)C)CC4)CC3)cc2)ccc1NC(=N)N |  |  | 42.3% |  | inactive | inactive
